Data published in ChEMBL document CHEMBL3045033, “Synthesis of new potential anticancer agents based on 4-thiazolidinone and oleanane scaffolds” (Med Chem Res, 2012).

Legend:
Hs-578T [1] = test: Cytotoxicity against Homo sapiens (human) Hs578T cells after 48 hr by SRB assay; assay type: functional
TK-10 [2] = test: Cytotoxicity against Homo sapiens (human) TK10 cells after 48 hr by SRB assay; assay type: functional; conditions: TK-10, 48 h
MCF7 = test: Cytotoxicity against Homo sapiens (human) MCF7 cells assessed as cellular growth at 10^-5 M after 48 hr by SRB assay relative to untreated control; assay type: functional
OVCAR-8 = test: Cytotoxicity against Homo sapiens (human) OVCAR8 cells assessed as cellular growth at 10^-5 M after 48 hr by SRB assay relative to untreated control; assay type: functional
U-251 = test: Cytotoxicity against Homo sapiens (human) U251 cells assessed as cellular growth at 10^-5 M after 48 hr by SRB assay relative to untreated control; assay type: functional
HCT-116 = test: Cytotoxicity against Homo sapiens (human) HCT116 cells assessed as cellular growth at 10^-5 M after 48 hr by SRB assay relative to untreated control; assay type: functional
NCI-H522 = test: Cytotoxicity against Homo sapiens (human) NCI-H522 cells assessed as cellular growth at 10^-5 M after 48 hr by SRB assay relative to untreated control; assay type: functional
NCI-H460 = test: Cytotoxicity against Homo sapiens (human) NCI-H460 cells assessed as cellular growth at 10^-5 M after 48 hr by SRB assay relative to untreated control; assay type: functional
A549 = test: Cytotoxicity against Homo sapiens (human) A549 cells assessed as cellular growth at 10^-5 M after 48 hr by SRB assay relative to untreated control; assay type: functional
MDA-MB-435 = test: Cytotoxicity against Homo sapiens (human) MDA-MB-435 cells after 48 hr by SRB assay; assay type: functional; conditions: MDA-MB-435, 48 h; for CC50: read-out: pLC50 (the source's name) (converted)
HOP-92 = test: Cytotoxicity against Homo sapiens (human) HOP92 cells after 48 hr by SRB assay; assay type: functional; conditions: HOP-92, 48 h
RPMI-8226 [3] = test: Cytotoxicity against Homo sapiens (human) RPMI8226 cells after 48 hr by SRB assay; assay type: functional; conditions: RPMI-8226, 48 h
MDA-MB-468 [4] = test: Cytotoxicity against Homo sapiens (human) MDA-MB-468 cells after 48 hr by SRB assay; assay type: functional; conditions: MDA-MB-468, 48 h, read-out: pLC50 (the source's name) (converted)
Hs-578T [5] = test: Cytotoxicity against Homo sapiens (human) Hs578T cells assessed as cellular growth at 10^-5 M after 48 hr by SRB assay relative to untreated control; assay type: functional
TK-10 [6] = test: Cytotoxicity against Homo sapiens (human) TK10 cells assessed as cellular growth at 10^-5 M after 48 hr by SRB assay relative to untreated control; assay type: functional
A498 = test: Cytotoxicity against Homo sapiens (human) A498 cells assessed as cellular growth at 10^-5 M after 48 hr by SRB assay relative to untreated control; assay type: functional
RPMI-8226 [7] = test: Cytotoxicity against Homo sapiens (human) RPMI8226 cells assessed as cellular growth at 10^-5 M after 48 hr by SRB assay relative to untreated control; assay type: functional
SF-295 = test: Cytotoxicity against Homo sapiens (human) SF295 cells assessed as cellular growth at 10^-5 M after 48 hr by SRB assay relative to untreated control; assay type: functional
[8] = Toxicity in mouse; assay type: organism-based; conditions: in vivo
HL-60(TB) = test: Cytotoxicity against Homo sapiens (human) HL-60(TB) cells assessed as cellular growth at 10^-5 M after 48 hr by SRB assay relative to untreated control; assay type: functional
CCRF-CEM = test: Cytotoxicity against Homo sapiens (human) CCRF-CEM cells assessed as cellular growth at 10^-5 M after 48 hr by SRB assay relative to untreated control; assay type: functional
T47D = test: Cytotoxicity against Homo sapiens (human) T47D cells assessed as cellular growth at 10^-5 M after 48 hr by SRB assay relative to untreated control; assay type: functional
MDA-MB-468 [9] = test: Cytotoxicity against Homo sapiens (human) MDA-MB-468 cells at 10^-4 to 10^-8 M after 48 hr by SRB assay; assay type: functional; conditions: MDA-MB-468, 48 h, read-out: pTGI (converted)

COC(=O)[C@]12CCC(C)(C)C[C@H]1C1=CC[C@@H]3[C@@]4(C)CC/C(=N\O)C(C)(C)[C@@H]4CC[C@@]3(C)[C@]1(C)CC2
GI50 (Hs-578T [1]): 27.5 µM | GI50 (TK-10 [2]): 33.9 µM | Activity (MCF7): 26.08% | Activity (OVCAR-8): 11.3% | Activity (U-251): 33.89% | Activity (HCT-116): 3.39% | Activity (NCI-H522): 23.74% | Activity (NCI-H460): 44.14% | Activity (A549): -41.06% | GI50 (MDA-MB-435): 39.8 µM | CC50 (MDA-MB-435): > 100 µM | GI50 (HOP-92): 19.1 µM | GI50 (RPMI-8226 [3]): 39.8 µM

CC1(C)CC[C@@]23CC[C@]4(C)[C@@](OC2=O)([C@@H]3C1)[C@@H](Br)C[C@@H]1[C@@]2(C)CC/C(=N\O)C(C)(C)[C@@H]2CC[C@]14C
CC50 (MDA-MB-468 [4]): > 100 µM | GI50 (Hs-578T [1]): 4.68 µM | GI50 (TK-10 [2]): 18.6 µM | Activity (Hs-578T [5]): 258.88% | Activity (TK-10 [6]): 31.05% | Activity (A498): 150.51% | Activity (RPMI-8226 [7]): 38.33% | Activity (SF-295): 19.14% | CC50 (MDA-MB-435): > 100 µM | GI50 (HOP-92): 4.37 µM | GI50 (RPMI-8226 [3]): > 100 µM

COC(=O)[C@]12CCC(C)(C)C[C@H]1C1=CC[C@@H]3[C@@]4(C)CC/C(=N\OC(=O)/C=C5/SC(=O)NC5=O)C(C)(C)[C@@H]4CC[C@@]3(C)[C@]1(C)CC2
MTD [8]: > 400 mg/kg | Activity (HL-60(TB)): -46.91% | Activity (CCRF-CEM): -24.8% | Activity (RPMI-8226 [7]): 16.33% | Activity (T47D): 9.18% | TGI (MDA-MB-468 [9]): 6.61 µM
